In ChEMBL document CHEMBL3045461, “Biological evaluation of synthetic analogues of curcumin: chloro-substituted-2-hydroxychalcones as potential inhibitors of tubulin polymerization and cell proliferation” (Med Chem Res, 2011):
The source made the active and inactive calls. The calls are words filed in the database; no cut-off is given here.

How the values were obtained:
Tubulin alpha 4a [1] = biological target: T1, Tubulin alpha 4a (Ovis aries, UniProt C5ISA2); assay: (§1) Inhibition of Ovis aries (sheep) brain tubulin polymerization assessed as microtubule assembly after 15 min by measuring turbidity based spectroscopic analysis
K562 [2] = assay: Cytotoxicity against Homo sapiens (human) K562 cells after 72 hr by MTT assay; format: functional, cell-based; conditions: K562, 72 h
HeLa = assay: Antiproliferative activity against Homo sapiens (human) HeLa cells; format: functional, cell-based
K562 [3] = assay: Cytotoxicity against Homo sapiens (human) K562 cells; format: functional, cell-based
SK-N-MC = assay: Cytotoxicity against Homo sapiens (human) SK-N-MC cells after 72 hr by MTT assay; format: functional, cell-based
MCF7 = assay: Antiproliferative activity against Homo sapiens (human) MCF7 cells; format: functional, cell-based
[4] = biological target: Tubulin alpha 4a (Ovis aries) (UniProt C5ISA2); assay: as §1
Tubulin alpha 4a [5] = biological target: T1, Tubulin alpha 4a; assay: (§2) Inhibition of Ovis aries (sheep) brain tubulin polymerization assessed as microtubule assembly after 30 min by CD spectra analysis
[6] = biological target: Tubulin alpha 4a (Ovis aries) (UniProt C5ISA2); assay: as §2
[7] = biological target: Tubulin alpha 4a (Ovis aries) (UniProt C5ISA2); assay: Binding affinity to Ovis aries (sheep) brain tubulin assessed as increase in fluorescent intensity at 1:1 compound protein ratio after 30 min by fluorescence spectroscopic analysis
[8] = biological target: Tubulin alpha 4a (Ovis aries) (UniProt C5ISA2); assay: Inhibition of Ovis aries (sheep) brain tubulin polymerization assessed as reduction of length of microtubule filament at 20 to 30 uM after 15 min by transmission electron microscopy analysis
[9] = biological target: Tubulin alpha 4a (Ovis aries) (UniProt C5ISA2); assay: Inhibition of Ovis aries (sheep) brain tubulin polymerization assessed as microtubule assembly at 30 uM after 30 min by CD spectra analysis
Tubulin alpha 4a [10] = biological target: T1, Tubulin alpha 4a; assay: (§3) Binding affinity to Ovis aries (sheep) brain tubulin assessed as intrinsic tryptophan fluorescence after 30 min by fluorescence spectroscopic analysis; format: tissue-based
[11] = biological target: Tubulin alpha 4a (Ovis aries) (UniProt C5ISA2); assay: as §3; format: tissue-based
[12] = biological target: Tubulin alpha 4a (Ovis aries) (UniProt C5ISA2); assay: Binding affinity to Ovis aries (sheep) brain tubulin assessed as […] at 25 to 50 uM after 30 min by far-UV CD spectrum analysis

Tubulin alpha 4a (Ovis aries), sequence (C5ISA2 1-448): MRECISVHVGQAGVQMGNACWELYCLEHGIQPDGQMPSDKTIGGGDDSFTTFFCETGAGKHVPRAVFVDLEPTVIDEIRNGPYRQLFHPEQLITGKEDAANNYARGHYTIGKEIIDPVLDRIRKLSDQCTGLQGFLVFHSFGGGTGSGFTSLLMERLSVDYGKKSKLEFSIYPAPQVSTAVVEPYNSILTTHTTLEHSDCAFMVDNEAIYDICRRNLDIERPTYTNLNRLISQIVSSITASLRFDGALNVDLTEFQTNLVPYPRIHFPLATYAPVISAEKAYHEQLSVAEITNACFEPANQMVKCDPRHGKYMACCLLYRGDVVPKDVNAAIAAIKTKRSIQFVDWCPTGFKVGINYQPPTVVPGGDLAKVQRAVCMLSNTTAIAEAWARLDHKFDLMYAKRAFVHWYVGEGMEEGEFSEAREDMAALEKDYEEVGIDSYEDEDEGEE
T1 sequence (C5ISA2 1-448): as above

| Compound | IC50 (Tubulin alpha 4a [1]) | IC50 (HeLa) | IC50 (MCF7) | inhibition [4] | IC50 (Tubulin alpha 4a [5]) | inhibition [6] | Activity [7] | inhibition [8] | inhibition [9] | Kd (Tubulin alpha 4a [10]) | Activity [11] | Activity [12] | IC50 (K562 [2]) | IC50 (K562 [3]) | IC50 (SK-N-MC) |
| --- | --- | --- | --- | --- | --- | --- | --- | --- | --- | --- | --- | --- | --- | --- | --- |
| COc1cc(/C=C/C(=O)CC(=O)/C=C/c2ccc(O)c(OC)c2)ccc1O [CURCUMIN] | 26.6 µM | 13.8 µM | 12 µM |  |  |  |  |  |  |  |  |  | 49.2 µM | 54.3 µM | 57.4 µM |
| O=C(/C=C/c1ccc(Cl)cc1Cl)c1cc(Cl)ccc1O | > 50 µM |  |  |  |  |  |  |  |  |  |  |  | 65.6 µM |  | 69.8 µM |
| O=C(/C=C/c1ccccc1Cl)c1cc(Cl)ccc1O | 21.4 µM |  |  | Dose-dependent effect |  |  |  |  |  |  |  |  | 41.8 µM |  | 51.3 µM |
| O=C(/C=C/c1ccccc1)c1ccccc1O [2'-HYDROXYCHALCONE] | 49.3 µM |  |  |  |  |  |  |  |  |  |  |  | 60.7 µM |  | 61.2 µM |

Now those with a lower IC50 (Tubulin alpha 4a [1]), led by results:

| IC50 (Tubulin alpha 4a [1]) | IC50 (HeLa) | IC50 (MCF7) | inhibition [4] | IC50 (Tubulin alpha 4a [5]) | inhibition [6] | Activity [7] | inhibition [8] | inhibition [9] | Kd (Tubulin alpha 4a [10]) | Activity [11] | Activity [12] | Compound | IC50 (K562 [2]) | IC50 (K562 [3]) | IC50 (SK-N-MC) |
| --- | --- | --- | --- | --- | --- | --- | --- | --- | --- | --- | --- | --- | --- | --- | --- |
| 20.3 µM |  |  | Dose-dependent effect |  |  |  |  |  |  |  |  | O=C(/C=C/c1ccc(Cl)cc1)c1cc(Cl)ccc1O | 38.7 µM |  | 45.8 µM |
| 19.6 µM |  |  | Dose-dependent effect | 19.6 µM | Dose-dependent effect | Active | Active | 89% | 3.7 µM | Dose-dependent effect | Active | O=C(/C=C/c1cccc(Cl)c1)c1cc(Cl)ccc1O | 41.1 µM |  | 47.8 µM |
